This note sets out measurements from patent US7169972B2, “Methods and compositions to modulate ethylene sensitivity” (The Salk Institute for Biological Studies, priority 2001, dated 2007).

The subject of the test is Arabidopsis etiolated seedlings. Put plainly: Ethylene response of etiolated seedlings grown on AT plates versus AT plus ACC (root length inhibition). The note with it: 10 uM ACC, 5 days. The class given is in vivo, Arabidopsis thaliana. The method, then:
(§1) Phenotypes of 5-day-old etiolated seedlings grown on AT plates in the absence or presence of 10 uM ACC. Data are presented in tabular (A) and graph (B) forms. Ethylene response of 5-day-old etiolated seedlings of WS, Col and two independent quadruple mutant isolates was quantified. Root and hypocotyl lengths of seedlings grown on AT plates versus AT plus 10 uM ACC were measured. Each data point represents the average organ length of 50 or more seedlings plus/minus standard deviation. Fold inhibition was calculated as the ratio of the average organ length in air to that in ACC.
To overcome the redundancy problem, crosses were performed between the mutants in different EDF genes to construct double, triple and quadruple mutant combinations. Mutant genotypes were assayed by PCR. […] Importantly, the observed ethylene insensitivity was more dramatic in the quadruple mutant combinations that involved the strong edf1-1 allele (i.e. edf1-1 edf2-1 edf3-1 edf4-1 and edf1-1 edf2-2 edf3-1 edf4-1), compared to those that included the edf1-2 allele (edf1-2 edf2-1 edf3-1 edf4-1 and edf1-2 edf2-2 edf3-1 edf4-1). The weaker phenotype of the latter quadruple mutant combinations is consistent with the leaky expression of EDF1 in the edf1-2 mutant.
as §1, with “were measured. […] Fold inhibition” for “were measured. Each data point represents the average organ length of 50 or more seedlings plus/minus standard deviation. Fold inhibition”, “in ACC. Similar, yet less dramatic, differences were detected when the hypocotyls of the quadruple and wild-type seedlings were measured.” for “in ACC.”
Arabidopsis thaliana accession Columbia-0 was used for all overexpression studies. […] After 3–4 days in the light at 4 degrees C., the plates were wrapped in foil and kept in a 24 C incubator, after which the phenotypes of seedlings were analyzed. […]

Molecules are shown by their SMILES.

Regarding `NC1(C(=O)O)CC1` [ACC, 1-aminocyclopropane-1-carboxylic acid], the “root length inhibition (fold; ratio of average organ length in air to that in ACC)” value (Columbia wild-type seedlings) was 9.5 fold, the “root length inhibition (fold; ratio of average organ length in air to that in ACC)” value (WS wild-type seedlings) was determined as 12 fold and the “root length inhibition (fold; ratio of average organ length in air to that in ACC)” value (quadruple mutant edf1-1 edf2-1 edf3-1 edf4-1 seedlings) was “less than 7 fold”.
